pIC50: −log10 of the molar value.
Tests used:
RAW264.7 [1] = test: Antiinflammatory activity against mouse RAW264.7 cells assessed as inhibition of NO release; type: functional, cell-based
[2] = Cytotoxicity against mouse RAW264.7 cells assessed as cell survival rate at 50 uM by MTT assay relative to control; type: toxicity, cell-based; details: read-out: Activity
RAW264.7 [3] = test: Antiinflammatory activity against LPS-stimulated mouse RAW264.7 cells assessed as NO emission at 50 uM (reference value: 20.56 +/-0.06%); type: functional
RAW264.7 [4] = test: Antiinflammatory activity against mouse RAW264.7 cells assessed as inhibition of NO production at 50 uM relative to control; type: functional
RAW264.7 [5] = test: Antiinflammatory activity against LPS-stimulated mouse RAW264.7 cells assessed as NO emission at 20 uM (reference value: 20.56 +/-0.06%); type: functional
[6] = Cytotoxicity against mouse RAW264.7 cells assessed as reduction in cell survival by MTT assay; type: toxicity, cell-based
[7] = Cytotoxicity against mouse RAW264.7 cells assessed as cell survival rate at 20 uM by MTT assay relative to control; type: toxicity, cell-based; details: read-out: Activity
RAW264.7 [8] = test: Antiinflammatory activity against LPS-stimulated mouse RAW264.7 cells assessed as reduction in beta-catenin protein expression by Western blot analysis; type: functional, cell-based; details: dose 5-20 µM
[9] = target: Transcription factor p65 (Mus musculus) (UniProt Q04207); test: Inhibition of p65 phosphorylation in LPS-stimulated mouse RAW264.7 cells by Western blot analysis; type: cell-based; details: dose 5-20 µM
Transcription factor p65 (Mus musculus), sequence (Q04207 whole entry): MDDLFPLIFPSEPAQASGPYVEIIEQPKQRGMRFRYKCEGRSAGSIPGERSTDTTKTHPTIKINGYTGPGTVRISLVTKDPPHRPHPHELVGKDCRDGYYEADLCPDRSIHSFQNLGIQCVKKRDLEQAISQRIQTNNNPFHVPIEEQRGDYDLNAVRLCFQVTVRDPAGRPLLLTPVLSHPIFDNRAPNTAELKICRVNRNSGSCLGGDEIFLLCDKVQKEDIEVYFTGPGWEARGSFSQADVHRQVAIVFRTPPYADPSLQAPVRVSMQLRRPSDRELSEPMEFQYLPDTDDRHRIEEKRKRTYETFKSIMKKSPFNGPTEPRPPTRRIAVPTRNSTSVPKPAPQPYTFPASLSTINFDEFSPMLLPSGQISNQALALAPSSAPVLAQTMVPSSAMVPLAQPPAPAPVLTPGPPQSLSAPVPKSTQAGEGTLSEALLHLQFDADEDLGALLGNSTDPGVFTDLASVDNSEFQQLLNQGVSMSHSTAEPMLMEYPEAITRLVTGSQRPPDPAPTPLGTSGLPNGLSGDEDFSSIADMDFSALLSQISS

RAW264.7 [10] = test: Antiinflammatory activity against mouse RAW264.7 cells assessed as inhibition of NO production at 20 uM relative to control; type: functional
RAW264.7 [11] = test: Antiinflammatory activity against LPS-stimulated mouse RAW264.7 cells assessed as reduction in iNOS protein expression by Western blot analysis; type: functional, cell-based; details: dose 5-20 µM

pIC50 (RAW264.7 [1])	inhibition [9]	SMILES	viability at 50 µM [2]	Activity (RAW264.7 [3])	inhibition at 50 µM (RAW264.7 [4])	Activity (RAW264.7 [5])	CC50 [6]	viability at 20 µM [7]	Activity (RAW264.7 [8])	inhibition at 20 µM (RAW264.7 [10])	Activity (RAW264.7 [11])
< 4.30	–	C[C@@H]1C[C@H]2[C@@H]3CCC4=CC(=O)C=C[C@]4(C)[C@@]3(F)[C@@H](O)C[C@]2(C)[C@@]1(O)C(=O)CO [DEXAMETHASONE]	107%	15.05 µM	26.9%	–	–	–	–	–	–
4.89	Dose-Dependent Effect	CC(C)(C)c1cc(CCc2cc(O)cc(O)c2)cc(C(C)(C)C)c1	–	–	–	10.08 µM	34.3 µM	99.1%	Dose-Dependent Effect	51%	Dose-Dependent Effect
< 4.30	–	COc1cc(/C=C/c2cccc(Cl)c2)cc(OC)c1	97.8%	18.96 µM	7.82%	–	–	–	–	–	–
4.32	–	Oc1cccc(CCc2cc(O)cc(O)c2)c1	110%	14.12 µM	31.4%	–	–	–	–	–	–
< 4.30	–	COc1cc(CCc2ccco2)cc(OC)c1	103%	21.18 µM	-2.98%	–	–	–	–	–	–
4.26	–	COc1cc(CCc2cccc(N)c2)cc(OC)c1	104%	15.2 µM	26.1%	–	–	–	–	–	–
< 4.30	–	COc1cc(CCc2cc(C(C)(C)C)cc(C(C)(C)C)c2)cc(OC)c1	114%	16.82 µM	18.2%	–	–	–	–	–	–
< 4.30	–	COc1cc(CCc2ccc(C(C)(C)C)cc2)cc(OC)c1	106%	17.5 µM	14.9%	–	–	–	–	–	–
4.35	–	O=[N+]([O-])c1cccc(/C=C/c2cc(O)cc(O)c2)c1	104%	15.32 µM	25.5%	–	–	–	–	–	–
< 4.30	–	COc1cc(O)cc(CCc2cccc(O)c2)c1 [BATATASIN III]	106%	16.14 µM	21.5%	–	–	–	–	–	–
< 4.30	–	COc1cc(/C=C/c2cc(C(C)(C)C)cc(C(C)(C)C)c2)cc(OC)c1	104%	17.02 µM	17.2%	–	–	–	–	–	–
< 4.30	–	COc1cc(/C=C/c2cccc(C(F)(F)F)c2)cc(OC)c1	109%	17.66 µM	14.1%	–	–	–	–	–	–
< 4.30	–	Oc1cc(O)cc(CCc2cccnc2)c1	98.9%	18.06 µM	12.2%	–	–	–	–	–	–
< 4.30	–	Oc1cc(O)cc(CCc2ccccc2)c1 [DIHYDROPINOSYLVIN]	102%	16.86 µM	18%	–	–	–	–	–	–
< 4.30	–	COc1cc(CCc2ccccc2)cc(OC)c1	99.5%	19.3 µM	6.16%	–	–	–	–	–	–
< 4.30	–	COc1cc(/C=C/c2ccc(C(C)(C)C)cc2)cc(OC)c1	99.3%	17.68 µM	14%	–	–	–	–	–	–
4.23	–	COc1cc(CCc2cccc(C)c2)cc(OC)c1	109%	16.28 µM	20.9%	–	–	–	–	–	–
< 4.30	–	COc1cc(CCc2cccc(C(F)(F)F)c2)cc(OC)c1	103%	16.54 µM	19.6%	–	–	–	–	–	–
< 4.30	–	COc1cc(/C=C/c2cccc([N+](=O)[O-])c2)cc(OC)c1	104%	17.5 µM	14.9%	–	–	–	–	–	–
< 4.30	–	COc1cc(/C=C/c2cccc(C#N)c2)cc(OC)c1	114%	18.22 µM	11.4%	–	–	–	–	–	–
< 4.30	–	COc1cccc(/C=C/c2cc(OC)cc(OC)c2)c1	97.2%	16.82 µM	18.2%	–	–	–	–	–	–
4.63	–	CC(C)(C)c1ccc(CCc2cc(O)cc(O)c2)cc1	106%	9.74 µM	52.6%	–	–	–	–	–	–
< 4.30	–	COc1cc(/C=C/c2cccnc2)cc(OC)c1	97.7%	15.94 µM	22.5%	–	–	–	–	–	–
< 4.30	–	COc1cc(CCc2cccnc2)cc(OC)c1	97.8%	17.72 µM	13.8%	–	–	–	–	–	–
4.27	–	Oc1cccc(/C=C/c2cc(O)cc(O)c2)c1	110%	15.88 µM	22.8%	–	–	–	–	–	–
< 4.30	–	COc1cc(CCc2cccc(C#N)c2)cc(OC)c1	105%	21.8 µM	-5.99%	–	–	–	–	–	–

Reference: ChEMBL document CHEMBL5329182, “Design, Synthesis, anti-inflammatory activity Evaluation, preliminary exploration of the Mechanism, molecule Docking, and structure-activity relationship analysis of batatasin III analogs” (Bioorg Med Chem Lett, 2023)
